What all share (assay type): in vivo
The subject of data set [1] is wheat (Triticum aestivum var. PR1404). Briefly: Pot study, phytotoxicity on wheat (Example 2). Particulars: 0.5 and 1.0 mg/mL, 7, 14 and 21 days after treatment. As to the method:
A pot study is conducted to test the phytotoxicity of thaxtomin A on corn (Zea mays var. Early Sunglow) and wheat (Triticum aestivum var. PR1404). To confirm the activity on broadleaf weeds, pigweed (Amaranthus sp.) is planted in the same pot with either three corn or five wheat seeds, and sprayed simultaneously with the cereal test plants. The less than 3-inch tall plants grown under growth lights (12-h light/12-h dark) at 28° C. are sprayed with thaxtomin A solutions derived from a liquid culture of S. acidiscabies containing 0.5, and 1.0 mg thaxtomin A per mL of solvent (4% ethanol and 0.2% non-ionic surfactant). A solution of 4% ethanol +0.2% non-ionic surfactant without thaxtomin A is used as a control treatment. Each treatment is conducted in three replicates. Treated plants are kept at 28° C. under growth lights and observed at three time points—7, 14 and 21 days after treatment—for visual symptoms of phytotoxicity on corn and wheat and % control of pigweed.

For data set [2], the system named is small flower umbrella sedge. The data set is described as follows: Post-emergent MBI-005 + rice herbicides on smallflower umbrella sedge (Example 19). The conditions noted are these: 14 days. On the procedure: Twenty seedlings in 2.5 cm square pots containing plant growth mix were sprayed to full coverage using a hand sprayer. Negative controls were sprayed with water. Pots were randomly placed in a growth room at 25° C. and 50% RH, and watered as necessary. Treatments were replicated three times and evaluated at 7 and 14 days for visual % damage, with 0% indicating no damage and 100% indicating plant death.
Synergy was calculated as the ratio of observed (E) to expected (E/Ee) percent control using Colby's formula.

For another data set, the system named is barnyard grass. Briefly: Post-emergent MBI-005 + rice herbicides on barnyard grass (Example 18). Particulars: 14 days. On the procedure:
Ten seedlings in 2.5 cm square pots containing plant growth mix were sprayed to full coverage using a hand sprayer. Negative controls were sprayed with water. Pots were randomly placed in a growth room at 25° C. and 50% RH, and watered as necessary. Treatments were replicated three times and evaluated at 7 and 14 days for visual % damage, with 0% indicating no damage and 100% indicating plant death.
Synergistic effect were noted between MBI-005 and all three rice herbicides, 14 days after treatment. Synergy was calculated as the ratio of observed (E) to expected (E/Ee) percent control using Colby's formula.

In data set [3] the test system is Henbit (Lamimum amplexicaule). Briefly: Pre-emergence test of MBI-005, field (Example 12). Further: ranges in brackets are in %. Particulars: pre-emergent. As to the method: (§1) In field testing, field soil containing weed seeds were treated with 38.2 L MBI-005/ha at a spray volume of 280 L/ha using a CO2 sprayer with flat fan nozzles. Treatments, including water as the negative control and Gallery as the positive control, were replicated four times and applied twice at a four week interval. Treatments were evaluated visually as % cover and above-ground fresh weights per container were taken.

The next data set relates to Eclipta (Eclipta alba). Briefly: Pre-emergence test of MBI-005, field (Example 12). Further: ranges in brackets are in %. Particulars: pre-emergent. As to the method:
as §1

In data set [4] the test system is Marsh watercress (Rorippa islandica). Briefly: Pre-emergence test of MBI-005, field (Example 12). Further: ranges in brackets are in %. The conditions noted are these: pre-emergent. As to the method: as §1
The test system of data set [5] is Bittercress (Cardamine hirsuta). Briefly: Pre-emergence test of MBI-005, field (Example 12). Further: ranges in brackets are in %. Particulars: pre-emergent. On the procedure:
as §1

Data set [6] has as its system Chickweed (Stellaria media). Briefly: Pre-emergence test of MBI-005, field (Example 12). Further: ranges in brackets are in %. The conditions noted are these: pre-emergent. As to the method:
as §1

For `CN1C(=O)[C@](O)(Cc2cccc(O)c2)N(C)C(=O)[C@@H]1Cc1c[nH]c2cccc([N+](=O)[O-])c12` [thaxtomin A], the symptoms of phytotoxicity entry in data set [1] is “no symptoms of phytotoxicity are observed”. Moreover, the “% Control MBI-005” value in data set [2] (MBI-005 0.5% of the label rate (Bispyribac-sodium line)) is 3.3%; in data set [2] (MBI-005 2.0% of the label rate (Penoxsulam line)), 20.0%; in data set [2] (MBI-005 2.0% of the label rate (Propanil line)), 20.0%; in data set [2] (MBI-005 2.0% of the label rate (Thiobencarb line)) it was 20.0%; in the data set with barnyard grass (MBI-005 12.5% of the label rate (Penoxsulam line)), 17.5%; in the data set on barnyard grass (MBI-005 25% of the label rate (Bispyribac-sodium line)), 41.7%. The “Rating at 0.1 mg/ml (Reduction of Germination)” value in data set [3] is listed as “+++ (85-94)”; in the data set with Eclipta (Eclipta alba), “++ (60-84)”; in data set [4] it was “++++ (95-100)”; in data set [5], “+++ (85-94)”; in data set [6] it was “++++ (95-100)”.
